Experimental data published in paper PMC5615155 (Toxicology Reports, 2017).
Like-named read-outs stand apart in the source and are kept apart here.

Experiments:
[1] = in vitro microsomal metabolism; format: in vitro ADME, human; details: 10 μM, 0.5 mg/mL, +NADPH, 120 min
[2] = in vitro microsomal metabolism; format: in vitro ADME, Sprague-Dawley rat; details: 10 μM, 0.5 mg/mL, +NADPH, 120 min
[3] = test system: S. typhimurium strains TA98, TA100, TA1535, TA1537; details: up to 5000 μg/plate, with and without metabolic activation; cited from earlier work
E. coli strain WP2 uvrA = details: up to 5000 μg/plate, with and without metabolic activation; cited from earlier work
[4] = cited from earlier work
HPBLs = details: cited from earlier work
CHO-WBL cells = details: ± metabolic activation, up to 2500 μg/mL; cited from earlier work
[5] = male mice, 2000 mg/kg bw; cited from earlier work
[6] = Day 1 of 90-day study, cited from earlier work

For O=C1CC2(CCCC2)CC(=O)N1CCCCN1CCN(c2ncccn2)CC1 [Buspirone, reference compound], the “% MS (EIC) peak area of parent relative to time 0” value [1] was 2% and the “% MS (EIC) peak area of parent relative to time 0” value [2] was 21%.

For CC(C)CC(=O)N1CCC[C@H](COc2cccc3c2C(N)=NS(=O)(=O)N3)C1 [S617, (S)-1-(3-(((4-amino-2,2-dioxido-1H-benzo[c][1,2,6]thiadiazin-5-yl)oxy)methyl)piperidin-1-yl)-3-methylbutan-1-one], the “bacterial reverse mutation result” value [3] is listed as “non-mutagenic”, the “bacterial reverse mutation result” value (E. coli strain WP2 uvrA) is listed as “non-mutagenic” and the AUClast ([4]; iv 1.0 mg/kg, F) is listed as 212 ng·h/mL. The Cmax ([4]; iv 1.0 mg/kg, F) was 1308 ng/mL, the Tmax ([4]; iv 1.0 mg/kg, F) was 0.03 h and the AUClast ([4]; iv 1.0 mg/kg, M) was 263 ng·h/mL. For the same compound, the Cmax ([4]; iv 1.0 mg/kg, M) was 1663 ng/mL, the Tmax ([4]; iv 1.0 mg/kg, M) was 0.03 h and the “%F” value ([4]; oral gavage 10 mg/kg, F) was 1.73%. The AUClast ([4]; oral gavage 10 mg/kg, F) was 36.7 ng·h/mL, the Cmax ([4]; oral gavage 10 mg/kg, F) was 4.80 ng/mL and the Tmax ([4]; oral gavage 10 mg/kg, F) was 0.88 h. The t1/2 ([4]; oral gavage 10 mg/kg, F) was 4.25 h, the “%F” value ([4]; oral gavage 10 mg/kg, M) was 0.67% and the AUClast ([4]; oral gavage 10 mg/kg, M) was 17.5 ng·h/mL. The Cmax ([4]; oral gavage 10 mg/kg, M) was 3.30 ng/mL, the Tmax ([4]; oral gavage 10 mg/kg, M) was 0.44 h and the t1/2 ([4]; oral gavage 10 mg/kg, M) was 3.85 h. For the same compound, the “%F” value ([4]; oral gavage 30 mg/kg, F) was 0.89%, the AUClast ([4]; oral gavage 30 mg/kg, F) was 56.3 ng·h/mL and the Cmax ([4]; oral gavage 30 mg/kg, F) was 9.40 ng/mL. For the same compound, the Tmax ([4]; oral gavage 30 mg/kg, F) was 1.38 h, the t1/2 ([4]; oral gavage 30 mg/kg, F) was 3.57 h and the “%F” value ([4]; oral gavage 30 mg/kg, M) was 0.54%. For the same compound, the AUClast ([4]; oral gavage 30 mg/kg, M) was 42.5 ng·h/mL, the Cmax ([4]; oral gavage 30 mg/kg, M) was 7.10 ng/mL and the Tmax ([4]; oral gavage 30 mg/kg, M) was 1.25 h. The t1/2 ([4]; oral gavage 30 mg/kg, M) was 3.03 h, the “%F” value ([4]; oral gavage 100 mg/kg, F) was 0.44% and the AUClast ([4]; oral gavage 100 mg/kg, F) was 92.6 ng·h/mL. The Cmax ([4]; oral gavage 100 mg/kg, F) was 18.3 ng/mL, the Tmax ([4]; oral gavage 100 mg/kg, F) was 0.50 h and the t1/2 ([4]; oral gavage 100 mg/kg, F) was 1.45 h. For the same compound, the “%F” value ([4]; oral gavage 100 mg/kg, M) was 0.20%, the AUClast ([4]; oral gavage 100 mg/kg, M) was 53.2 ng·h/mL and the Cmax ([4]; oral gavage 100 mg/kg, M) was 10.1 ng/mL. For the same compound, the Tmax ([4]; oral gavage 100 mg/kg, M) was 1.38 h, the t1/2 ([4]; oral gavage 100 mg/kg, M) was 3.48 h and the chromosome aberration result (HPBLs) was “non-clastogenic”. The “in vitro micronucleus result” value (CHO-WBL cells) was “neither clastogenic nor aneugenic”.

In the case of CCCNC(=O)C(C)(C)COc1cccc2c1C(N)=NS(=O)(=O)N2 [S6973, 3-((4-amino-2,2-dioxido-1H-benzo[c][1,2,6]thiadiazin-5-yl)oxy)-2,2-dimethyl-N-propylpropanamide], the “bacterial reverse mutation result” value [3] is listed as “non-mutagenic”, the “bacterial reverse mutation result” value (E. coli strain WP2 uvrA) is listed as “non-mutagenic” and the AUClast ([4]; iv 2.5 mg/kg, M) is listed as 1760 ng·h/mL. For the same compound, the Cmax ([4]; iv 2.5 mg/kg, M) was 3997 ng/mL, the Tmax ([4]; iv 2.5 mg/kg, M) was 0.083 h and the t1/2 ([4]; iv 2.5 mg/kg, M) was 0.78 h. For the same compound, the “%F” value ([4]; oral gavage 5.0 mg/kg, M) was 9.56%, the AUClast ([4]; oral gavage 5.0 mg/kg, M) was 337 ng·h/mL and the Cmax ([4]; oral gavage 5.0 mg/kg, M) was 74.8 ng/mL. For the same compound, the Tmax ([4]; oral gavage 5.0 mg/kg, M) was 1.33 h, the t1/2 ([4]; oral gavage 5.0 mg/kg, M) was 3.67 h and the “%F” value ([4]; oral gavage 10 mg/kg, M) was 6.43%. The AUClast ([4]; oral gavage 10 mg/kg, M) was 453 ng·h/mL, the Cmax ([4]; oral gavage 10 mg/kg, M) was 103 ng/mL and the Tmax ([4]; oral gavage 10 mg/kg, M) was 1.00 h. The t1/2 ([4]; oral gavage 10 mg/kg, M) was 2.98 h, the “%F” value ([4]; oral gavage 20 mg/kg, M) was 3.93% and the AUClast ([4]; oral gavage 20 mg/kg, M) was 553 ng·h/mL. The Cmax ([4]; oral gavage 20 mg/kg, M) was 111 ng/mL, the Tmax ([4]; oral gavage 20 mg/kg, M) was 1.33 h and the t1/2 ([4]; oral gavage 20 mg/kg, M) was 4.53 h. The chromosome aberration result (HPBLs) was “non-clastogenic”, the “in vivo micronucleus result” value [5] was “neither clastogenic nor aneugenic” and the “bioavailability, food ad-mix” value ([6]; 5.0 mg/kg bw) was 8.04%. The “bioavailability, food ad-mix” value ([6]; 20 mg/kg bw) was 7.73%.
